According to ChEMBL document CHEMBL3817786, “An Unusual Natural Product Primary Sulfonamide: Synthesis, Carbonic Anhydrase Inhibition, and Protein X-ray Structures of Psammaplin C” (J Med Chem, 2016):

How the values were obtained:
Carbonic anhydrase 4 = Carbonic anhydrase 4 (Homo sapiens, UniProt P22748); assay: Inhibition of human recombinant carbonic anhydrase 4 expressed in Escherichia coli BL21 (DE3) by stopped-flow CO2 hydration assay
[1] = target: Carbonic anhydrase 5A, mitochondrial (Homo sapiens, UniProt P35218); assay: Inhibition of human recombinant carbonic anhydrase 5A expressed in Escherichia coli BL21 (DE3) by stopped-flow CO2 hydration assay
Carbonic anhydrase 6 = Carbonic anhydrase 6 (Homo sapiens, UniProt P23280); assay: Inhibition of human recombinant carbonic anhydrase 6 expressed in Escherichia coli BL21 (DE3) by stopped-flow CO2 hydration assay
Carbonic anhydrase 7 = Carbonic anhydrase 7 (Homo sapiens, UniProt P43166); assay: Inhibition of human recombinant carbonic anhydrase 7 expressed in Escherichia coli BL21 (DE3) by stopped-flow CO2 hydration assay
Carbonic anhydrase 13 = Carbonic anhydrase 13 (Homo sapiens, UniProt Q8N1Q1); assay: Inhibition of human recombinant carbonic anhydrase 13 expressed in Escherichia coli BL21 (DE3) by stopped-flow CO2 hydration assay
Carbonic anhydrase 14 = Carbonic anhydrase 14 (Homo sapiens, UniProt Q9ULX7); assay: Inhibition of human recombinant carbonic anhydrase 14 expressed in Escherichia coli BL21 (DE3) by stopped-flow CO2 hydration assay
Chain of Carbonic anhydrase 14 (Q9ULX7 whole entry): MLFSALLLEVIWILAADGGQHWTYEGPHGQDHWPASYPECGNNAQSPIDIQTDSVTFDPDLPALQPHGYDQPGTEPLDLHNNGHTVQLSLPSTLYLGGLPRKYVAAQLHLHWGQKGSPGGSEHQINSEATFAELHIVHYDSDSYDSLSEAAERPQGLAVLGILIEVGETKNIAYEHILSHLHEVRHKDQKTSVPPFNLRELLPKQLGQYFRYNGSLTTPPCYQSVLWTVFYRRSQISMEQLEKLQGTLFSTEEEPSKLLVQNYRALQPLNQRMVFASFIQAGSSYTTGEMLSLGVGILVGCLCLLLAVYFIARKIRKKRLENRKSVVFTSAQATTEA

Chain of Carbonic anhydrase 4 (P22748 whole entry): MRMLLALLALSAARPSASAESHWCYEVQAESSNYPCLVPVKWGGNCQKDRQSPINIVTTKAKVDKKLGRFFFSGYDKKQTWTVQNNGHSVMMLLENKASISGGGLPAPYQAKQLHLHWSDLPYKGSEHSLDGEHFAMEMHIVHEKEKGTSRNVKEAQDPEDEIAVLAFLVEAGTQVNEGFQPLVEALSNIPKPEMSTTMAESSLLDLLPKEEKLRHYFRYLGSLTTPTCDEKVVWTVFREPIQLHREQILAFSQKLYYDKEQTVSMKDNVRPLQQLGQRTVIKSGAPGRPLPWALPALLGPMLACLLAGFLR
Chain of Carbonic anhydrase 5A, mitochondrial (P35218 whole entry): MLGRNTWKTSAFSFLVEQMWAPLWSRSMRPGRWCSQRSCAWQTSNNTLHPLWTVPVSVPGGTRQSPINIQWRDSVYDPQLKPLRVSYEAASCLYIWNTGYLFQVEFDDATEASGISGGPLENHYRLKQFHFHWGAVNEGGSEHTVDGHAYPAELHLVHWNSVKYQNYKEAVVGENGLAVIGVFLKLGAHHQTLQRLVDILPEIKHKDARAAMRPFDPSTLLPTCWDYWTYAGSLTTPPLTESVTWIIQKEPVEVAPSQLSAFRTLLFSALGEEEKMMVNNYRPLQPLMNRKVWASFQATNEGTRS
Chain of Carbonic anhydrase 6 (P23280 whole entry): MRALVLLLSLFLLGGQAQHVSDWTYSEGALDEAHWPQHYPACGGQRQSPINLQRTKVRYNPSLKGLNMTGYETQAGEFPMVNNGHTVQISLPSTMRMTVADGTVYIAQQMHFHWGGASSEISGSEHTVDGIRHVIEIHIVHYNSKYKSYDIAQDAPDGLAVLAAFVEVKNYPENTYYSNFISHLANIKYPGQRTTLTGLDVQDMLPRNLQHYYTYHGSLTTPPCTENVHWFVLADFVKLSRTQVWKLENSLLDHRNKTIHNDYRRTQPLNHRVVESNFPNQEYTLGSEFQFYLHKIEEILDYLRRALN
Chain of Carbonic anhydrase 7 (P43166 whole entry): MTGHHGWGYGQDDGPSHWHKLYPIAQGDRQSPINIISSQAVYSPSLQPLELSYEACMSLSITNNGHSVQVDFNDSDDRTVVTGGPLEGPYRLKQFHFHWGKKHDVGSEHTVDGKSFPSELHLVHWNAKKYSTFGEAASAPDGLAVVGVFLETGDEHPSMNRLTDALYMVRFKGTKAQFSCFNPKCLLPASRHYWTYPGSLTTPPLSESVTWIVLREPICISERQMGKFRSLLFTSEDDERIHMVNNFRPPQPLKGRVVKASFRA
Chain of Carbonic anhydrase 13 (Q8N1Q1 whole entry): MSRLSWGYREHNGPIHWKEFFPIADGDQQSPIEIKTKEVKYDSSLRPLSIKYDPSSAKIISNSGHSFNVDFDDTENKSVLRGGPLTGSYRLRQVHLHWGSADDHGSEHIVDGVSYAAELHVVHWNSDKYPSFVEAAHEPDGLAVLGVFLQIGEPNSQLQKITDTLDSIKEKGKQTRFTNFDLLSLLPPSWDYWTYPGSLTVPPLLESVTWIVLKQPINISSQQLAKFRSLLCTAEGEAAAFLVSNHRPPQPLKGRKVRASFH

Ki (Carbonic anhydrase 4): 0.0753 µM
Ki [1]: 0.154 µM
Ki (Carbonic anhydrase 6): 9.68 µM
Ki (Carbonic anhydrase 7): 0.0017 µM
Ki (Carbonic anhydrase 13): 10.6 µM
Ki (Carbonic anhydrase 14): 0.379 µM
SMILES: NS(=O)(=O)CCNC(=O)/C(Cc1ccc(O)c(Br)c1)=N/O
